Measured values from US20260248788A1, “NEW COMPOUNDS AND TREATMENT OF RENAL CELL CARCINOMA” (TRUSTLIFE THERAPEUTICS INC., priority 2023, published 2026).
pIC50: −log10 of the molar value. Entries after “also recorded” stand apart in the source; their conditions may differ. *1 amine or outer side, *2 acyl side, *3 side chain or, on linkers, in order; H or OH if unused. Where a SMILES comes first, the peptide text is derived from it. Bridges are numbered along the chain shown (N, C = ends). Roman numbers before positions name the chains, in order. [ ]: non-standard residue; d: D form. Actinocin(9to1) = Cc1c2oc3c(C)ccc(C(=O)[*:1])c3nc-2c(C(=O)[*:2])c(N)c1=O; NMeV = CN[C@H](C(=O)O)C(C)C; Sar = CNCC(=O)O

How the values were obtained:
Assay type in all cases: cell-based, human
RRM2 = assay: Western blot of RRM2 protein level in drug-treated Caki-1; conditions: Caki-1, 24 h; NVP-TAE684 3 nM, MK-0752 5 nM, withaferin-a 4 μM, actinomycin-d 0.3 nM; vs DMSO
Procedure: (§1) Cell culture 1: Human clear cell renal cell carcinoma (ccRCC) cell line Caki-1 was obtained from the Karolinska Institute of Environmental Medicine, Stockholm, Sweden, derived from a ccRCC patient. The cells were cultured in RPMI 1640 medium with 10% fetal bovine serum (FBS) and 1% penicillin/streptomycin. The cells were cultivated at 37° C. in a humidified incubator with 5% CO2.
(§2) TG-101209, NVP-TAE684, MK-0752, actinomycin-d, and panobinostat were purchased from Selleckchem (S2692, S1108, S2660, S8964, S1030, Selleckchem, Houston, TX, USA), and withaferin-a was purchased from Sigma (W4394, Sigma-Aldrich, Saint Louis, MO, USA). These drugs were dissolved in DMSO. The cells (from cell culture 1) were seeded in a 96-well plate at 20×10^3 cells per well. After seeding for 24 h, the cells were treated for 24 h with the target drugs: TG-101209 (6 nM), NVP-TAE684 (3 nM), MK-0752 (5 nM), withaferin-a (4 μM), actinomycin-d (0.3 nM), and panobinostat (5 nM). The cells in the negative control group were only treated by DMSO for one day.
The cells were washed with phosphate-buffered saline (PBS) and lysed with CelLytic M (C2978, Sigma-Aldrich, Saint Louis, MO, USA) lysis buffer containing protease inhibitors. The lysates were centrifuged at 12 000 rpm for 5 min, and the supernatant was collected. The proteins were separated by Mini-PROTEAN® TGX™ Precast Gels (BioRad, Berkeley, CA, USA) and transferred to a Trans-Blot Turbo Mini 0.2 μm PVDF Transfer Packs membrane (BioRad, Berkeley, CA, USA) by using Trans-Blot® Turbo™ Transfer System (Bio-Rad, Berkeley, CA, USA). The antibodies for BUB1B (HPA008419), RRM2 (HPA056994), CEP55 (HPA023430), ASF1B (HPA069385), CCNB2 (HPA008873), and GAPDH (sc47724, Santa Cruz Biotechnology, Inc.) were used for primary immunoblotting. All the antibodies were diluted at 1:10000 concentration. The membranes were incubated in primary antibody solution overnight at 4° C. with gentle rocking. […] The protein bands were detected with ImageQuanat™ LAS 500 (29-0050-63, GE) automatic exposure procedure or 6 min exposure.

Caki-1 = assay: Cell Counting Kit-8 (CCK-8) cell viability assay; conditions: Caki-1, 24 h; TG-101209 6 nM, NVP-TAE684 3 nM, MK-0752 5 nM, withaferin-a 4 μM, panobinostat 5 nM; vs DMSO
Procedure: Cell culture 1: Human clear cell renal cell carcinoma (ccRCC) cell line Caki-1 was obtained from the Karolinska Institute of Environmental Medicine, Stockholm, Sweden, derived from a ccRCC patient. The cells were cultured in RPMI 1640 medium with 10% fetal bovine serum (FBS) and 1% penicillin/streptomycin. The cells were cultivated at 37° C. in a humidified incubator with 5% CO2. TG-101209, NVP-TAE684, MK-0752, actinomycin-d, and panobinostat were purchased from Selleckchem ([…], […], […], […], […], Selleckchem, Houston, TX, USA), and withaferin-a was purchased from Sigma (W4394, Sigma-Aldrich, Saint Louis, MO, USA). These drugs were dissolved in DMSO. The cells (from cell culture 1) were seeded in a 96-well plate at 20×10^3 cells per well. After seeding for 24 h, the cells were treated for 24 h with the target drugs: TG-101209 (6 nM), NVP-TAE684 (3 nM), MK-0752 (5 nM), withaferin-a (4 μM), actinomycin-d (0.3 nM), and panobinostat (5 nM). The cells in the negative control group were only treated by DMSO for one day. Cell proliferation was detected by Cell Counting Kit-8 (CCK-8) assay. The 10 μl of CCK-8 reagent (1:10) was added to each well of 96-well plate with siRNA transfected cells or drug-treated cells by manufacturer's instruction. The 96-well plate was incubated at 37° C. for 2 hours and then measured absorbance at 450 nm using a microplate reader (Hidex Sense Beta Plus).

BUB1B [1] = assay: Western blot of BUB1B protein level in drug-treated Caki-1; conditions: Caki-1, TG-101209 6 nM, 24 h, vs DMSO negative control
Procedure: as §1, §2
The cells were washed with phosphate-buffered saline (PBS) and lysed with CelLytic M (C2978, Sigma-Aldrich, Saint Louis, MO, USA) lysis buffer containing protease inhibitors. […] The protein bands were detected with ImageQuanat™ LAS 500 (29-0050-63, GE) automatic exposure procedure or 6 min exposure.

BUB1B [2] = assay: Western blot of BUB1B in Caki-1 cells treated with TG-101209 derivatives; conditions: Caki-1 cells, 5 μM of target drug, 1 day (FIG. 41, 56)
Procedure: (§3) Cell culture 2: Caki-1 was purchased from CLS Cell Lines Service (Germany). The cells were maintained in McCoy's 5A (modified) medium (16600082, Thermo Fisher Scientific, USA) and supplemented with 10% fetal bovine serum (FBS, F7524, Sigma-Aldrich), 1% Penicillin/Streptomycin (P4333, Sigma-Aldrich).
The target drugs developed as alternatives to TG-101209, were dissolved in 0.1% DMSO (41639, Sigma-Aldrich). Caki-1 cells from cell culture 2 were seeded in a 6-well plate at 3×10^5 cells per well. […]
The cells were washed with PBS solution and then lysed with CelLytic M (C2978, Sigma-Aldrich) lysis buffer containing protease inhibitors (11836170001, Roche). The cell lysates were centrifuged at 12 000 rpm for 10 min and supernatants were collected. Protein Assay Dye Reagent (5000006, Bio-Rad) was used for the determination of protein concentration. The absorbance of the proteins was measured spectrophotometrically at 595 nm by a microplate reader (Hidex Sense Beta Plus). Protein electrophoresis was performed using Mini-PROTEAN® TGX™ Precast Gels (4561086, Bio-Rad) and then the separated proteins were transferred to a Trans-Blot Turbo Mini 0.2 μm PVDF Transfer Packs membrane (1704158, Bio-Rad) by using Trans-Blot® Turbo™ Transfer System (Bio-Rad). The membrane was blocked with 5% skim milk for 30 min at 4° C. with gentle rocking. After blocking, the membrane was treated with primary antibodies: Anti-BUB1B (HPA008419, Human Protein Atlas, Sweden) and Anti-Beta actin (ab8227, Abcam) as a loading control overnight at 4° C. on a rocking platform. After the treatment of primary antibodies, the membrane was washed three times with TBS-T buffer (A09-7500-100, Medicago). Then, Goat anti-Rabbit IgG-HRP (ab205718, Abcam) was treated as the secondary antibody for 30 min at 4° C. with gentle rocking.

Caki-1 cells [3] = assay: MTT cell viability assay
Procedure: as §3
The cytotoxic effects of the TG-101209 and its alternatives on the Caki-1 cells were tested by MTT (Thiazolyl Blue Tetrazolium Bromide) method. 1.5×10^4 cells were seeded per well in a 96-well plate in 100 μL growth media. […] After the incubation period, 5 mg/ml MTT (M2128, Sigma-Aldrich) solution in PBS (10 μL) was added to each well. After 1 hour, the MTT solution and all media were removed from the wells. 100 μl of DMSO was added and mixed to dissolve the formazan crystals. Cell viability was analysed by measuring the absorbance of the dissolved formazan at a wavelength of 570 nm with a microplate reader (Hidex Sense Beta Plus).

Caki-1 cells [4] = assay: LDH cytotoxicity assay; conditions: Caki-1, 10 nM-30 μM
Procedure: as §3
Lactate dehydrogenase (LDH) assay was performed with LDH Assay Kit (ab65393). […] 20 μl of media was analysed with LDH Assay Kit as per manufacturer's instruction.

| SMILES | protein level of RRM2 (Western blot) (RRM2) | cell viability (CCK-8) (Caki-1) | protein level of BUB1B (Western blot) (BUB1B [1]) | expression levels of BUB1B (Western blot) (BUB1B [2]) | change of IC50 values after 2 days compared to 1 day treatment (Caki-1 cells [3]; Caki-1 (FIG. 53-54)) | effect on cell viability (MTT) (Caki-1 cells [3]; Caki-1, 10 μM, 1 day, first batch) | pIC50 (Caki-1 cells [3]; Caki-1, 1 day (FIG. 43), text: after treatment with 5 μM) | Ranking, Cell viability (%) (Caki-1 cells [3]; top five, MTT assay, 10 μM, 1 day, rank 1 = greatest reduction) | cytotoxic effect and dose dependence (Caki-1 cells [4]) |
| --- | --- | --- | --- | --- | --- | --- | --- | --- | --- |
| COc1cc(N2CCC(N3CCN(C)CC3)CC2)ccc1Nc1ncc(Cl)c(Nc2ccccc2S(=O)(=O)C(C)C)n1 [NVP-TAE684] | significantly suppressed | significantly reduced | – | – | – | – | – | – | – |
| Cc1cnc(Nc2ccc(N3CCN(C)CC3)cc2)nc1Nc1cccc(S(=O)(=O)NC(C)(C)C)c1 [TG-101209, reference compound] | – | significantly reduced | significantly decreased; also recorded: significantly reduced | significantly lower the expression levels of BUB1B | largest decrease | most profound effect | ~5.52 | 5 | dose dependent toxicity |
| Cc1c2oc3c(C)ccc(C(=O)N[C@@H]4C(=O)N[C@H](C(C)C)C(=O)N5CCC[C@H]5C(=O)N(C)CC(=O)N(C)[C@@H](C(C)C)C(=O)O[C@@H]4C)c3nc-2c(C(=O)N[C@@H]2C(=O)N[C@H](C(C)C)C(=O)N3CCC[C@H]3C(=O)N(C)CC(=O)N(C)[C@@H](C(C)C)C(=O)O[C@@H]2C)c(N)c1=O [actinomycin-d] (I: T[dV]P[Sar][NMeV] / II: T[dV]P[Sar][NMeV]; ester I:1-I:C, II:1-II:C; linker I:N-II:N via Actinocin(9to1)) | does not work for inhibiting RRM2 | – | – | – | – | – | – | – | – |
| CC1=C(CO)C(=O)O[C@@H]([C@@H](C)[C@H]2CC[C@H]3[C@@H]4C[C@H]5O[C@]56[C@@H](O)C=CC(=O)[C@]6(C)[C@H]4CC[C@]23C)C1 [withaferin-a] | significantly suppressed | significantly reduced | – | – | – | – | – | – | – |
